# Key:
# [1] = test system: E. faec. DSM-17050 (VRE); assay: MIC assay; format: cell-based, Enterococcus faecium; settings: Enterococcus; read-out: MIC E. faec. DSM-17050 (VRE)
# Description: (§1) All cystobactamids were evaluated in MIC-assays on a panel of representative ESKAPE strains with focus on A. baumannii (Tables 1 and 2). Compared to our previous work[10],[17],[18], we specifically included more challenging test strains with known resistances against gyrase inhibitors.
# (§2) 2.1 Materials and Methods
# (§3) Strains were cultivated according to standard procedures. Bacterial cryo-cultures were
# (§4) resuspended into fresh MHBII (cation adjusted) medium. The resuspension
# (§5) assay plate (Corning, #3788).
# (§6) in parallel as a positive control. […]
# [2] = test system: K. pneum. CIP-104298; assay: MIC assay; format: cell-based; settings: Klebsiella pneumoniae, CIP104298; reference strain; read-out: MIC K. pneum. CIP-104298
# Description: as §1, §2, §3, §4, §5, §6
# [3] = test system: A. baum. ATCC BAA-1710; assay: MIC assay; format: cell-based; settings: Acinetobacter baumannii, ATCCBAA1710; read-out: MIC A. baum. ATCC BAA-1710
# Description: as §1, §2, §3, §4, §5, §6
# [4] = test system: E. coli LM705; assay: MIC assay; format: cell-based; settings: Escherichia coli, LM705, read-out: MIC E. coli LM705
# Description: as §1, §2, §3, §4, §5, §6
# [5] = test system: P. ae. PA14ΔmexAB; assay: MIC assay; format: cell-based; settings: Pseudomonas aeruginosa, read-out: MIC P. ae. PA14ΔmexAB
# Description: as §1, §2, §3, §4, §5, §6
# [6] = test system: A. baum. CIP-107292; assay: MIC assay; format: cell-based; settings: Acinetobacter baumannii, CIP107292; read-out: MIC A. baum. CIP-107292
# Description: as §1, §2, §3, §4, §5, §6
# [7] = test system: P. ae. PA14; assay: MIC assay; format: cell-based; settings: Pseudomonas aeruginosa, PA14; reference strain; read-out: MIC P. ae. PA14
# Description: as §1, §2, §3, §4, §5, §6
# [8] = test system: S. aur. ATCC-29213; assay: MIC assay; format: cell-based; settings: Staphylococcus aureus, ATCC29213; reference strain; read-out: MIC S. aur. ATCC-29213
# Description: as §1, §2, §3, §4, §5, §6
# [9] = test system: E. coli ATCC-25922; assay: MIC assay; format: cell-based; settings: Escherichia coli, ATCC25922; reference strain; read-out: MIC E. coli ATCC-25922
# Description: as §1, §2, §3, §4, §5, §6
# [10] = test system: A. baum. R835; assay: MIC assay; format: cell-based; settings: Acinetobacter baumannii; read-out: MIC A. baum. R835
# Description: as §1, §2, §3, §4, §5, §6
# [11] = test system: S. pneum. DSM-11865 (PRSP); assay: MIC assay; format: cell-based; settings: Streptococcus pneumoniae; read-out: MIC S. pneum. DSM-11865 (PRSP)
# Description: as §1, §2, §3, §4, §5, §6
# [12] = test system: A. baum. DSM-30008; assay: MIC assay; format: cell-based; settings: Acinetobacter baumannii, DSM30008; reference strain; read-out: MIC A. baum. DSM-30008
# Description: as §1, §2, §3, §4, §5, §6
# [13] = test system: A. baum. CIP-105742; assay: MIC assay; format: cell-based; settings: Acinetobacter baumannii, CIP105742; read-out: MIC A. baum. CIP-105742
# Description: as §1, §2, §3, §4, §5, §6
# [14] = test system: K. pneum. R-1525; assay: MIC assay; format: cell-based; settings: Klebsiella pneumoniae; read-out: MIC K. pneum. R-1525
# Description: as §1, §2, §3, §4, §5, §6
# [15] = test system: E. ae. CIP 106754; assay: MIC assay; format: cell-based, Enterobacter aerogenes; settings: Klebsiella aerogenes, CIP106754, read-out: MIC E. ae. CIP 106754
# Description: as §1, §2, §3, §4, §5, §6
# [16] = test system: K. pneum. KP10581; assay: MIC assay; format: cell-based; settings: Klebsiella pneumoniae; read-out: MIC K. pneum. KP10581
# Description: as §1, §2, §3, §4, §5, §6
# [17] = test system: E. cloacae ATCC BAA-2468; assay: MIC assay; format: cell-based; settings: Enterobacter cloacae, ATCCBAA2468; read-out: MIC E. cloacae ATCC BAA-2468
# Description: as §1, §2, §3, §4, §5, §6
# [18] = test system: ESKAPE strains; assay: MIC-assays on a panel of representative ESKAPE strains, summary in words; format: cell-based; settings: summary of the MIC tables
# Description: as §1, §2, §3, §4, §5, §6
Compound,MIC [1],MIC [2],MIC [3],MIC [4],MIC [5],MIC [6],MIC [7],MIC [8],MIC [9],MIC [10],MIC [11],MIC [12],MIC [13],MIC [14],MIC [15],MIC [16],MIC [17],"antibacterial activity on the pathogen panel, in words [18]"
"O=C(O)c1cn(C2CC2)c2cc(N3CCNCC3)c(F)cc2c1=O [CIP, ciprofloxacin, reference compound]",0.05 to 4 µg/mL,0.025 to 0.05 µg/mL,32 µg/mL,> 6.4 µg/mL,0.006 to 0.1 µg/mL,64 µg/mL,0.025 to 0.2 µg/mL,0.2 to 1 µg/mL,0.01 to 0.03 µg/mL,32 µg/mL,> 6.4 µg/mL,0.05 to 0.25 µg/mL,0.03 to 0.25 µg/mL,> 64 µg/mL,> 6.4 µg/mL,,,
"CO[C@@H](C(N)=O)[C@H](NC(=O)c1ccc(NC(=O)c2ccc(C#N)cc2)cc1)C(=O)Nc1ccc(C(=O)Nc2ccc(C(=O)Nc3ccc(C(=O)O)cc3)c(O)c2OC(C)C)cc1 [CN861 1, reference compound]",,16 µg/mL,8 µg/mL,0.64 µg/mL,1 µg/mL,> 64 µg/mL,16 µg/mL,0.125 µg/mL,0.25 µg/mL,64 µg/mL,,1 µg/mL,0.25 µg/mL,16 µg/mL,4 µg/mL,2 µg/mL,32 µg/mL,
"C#CCC(NC(=O)c1ccc(NC(=O)c2ccc(C#N)cc2)cc1)C(=O)Nc1ccc(C(=O)Nc2ccc(C(=O)Nc3ccc(C(=O)O)cc3)c(O)c2OC(C)C)cc1 (stereo not drawn) [CN-CC-861 2, reference compound]",< 0.03 µg/mL,8 µg/mL,0.06 to 0.25 µg/mL,0.03 to 0.2 µg/mL,0.03 to 0.5 µg/mL,0.5 to 1 µg/mL,0.5 to 16 µg/mL,0.02 µg/mL,,1 µg/mL,,0.02 to 0.03 µg/mL,0.02 µg/mL,,0.125 to 4 µg/mL,0.06 to 0.25 µg/mL,,
C#CC[C@H](NC(=O)c1ccc(NC(=O)c2ccc(C#N)cc2)cc1)C(=O)Nc1ccc(C(=O)Nc2cc(O)c(C(=O)Nc3ccc(C(=O)O)cc3)cc2OC(C)C)cc1 [Cmpd. 3],> 64 µg/mL,> 64 µg/mL,> 64 µg/mL,> 64 µg/mL,> 64 µg/mL,> 64 µg/mL,> 64 µg/mL,> 64 µg/mL,1 µg/mL,> 64 µg/mL,> 64 µg/mL,1 µg/mL,2 µg/mL,> 64 µg/mL,> 64 µg/mL,> 64 µg/mL,> 64 µg/mL,
C#CCC(NC(=O)c1ccc(NC(=O)c2ccc(C#N)cc2)cc1)C(=O)Nc1ccc(C(=O)Nc2ccc(C(=O)Nc3ccc(C(=O)O)cc3)c(Cl)c2OC(C)C)cc1 (stereo not drawn) [Cmpd. 5],> 64 µg/mL,> 64 µg/mL,> 8 µg/mL,> 64 µg/mL,> 64 µg/mL,> 8 µg/mL,> 64 µg/mL,> 64 µg/mL,> 64 µg/mL,> 8 µg/mL,> 64 µg/mL,> 8 µg/mL,> 8 µg/mL,> 64 µg/mL,> 64 µg/mL,> 64 µg/mL,> 64 µg/mL,abolished the activity in all tested strains
C#CC[C@H](NC(=O)c1ccc(NC(=O)c2ccc(C#N)cc2)cc1)C(=O)Nc1ccc(C(=O)Nc2ccc(C(=O)Nc3ccc(C(=O)O)cc3)c(Br)c2OC(C)C)cc1 [Cmpd. 6],> 64 µg/mL,> 64 µg/mL,> 8 µg/mL,> 64 µg/mL,> 64 µg/mL,> 8 µg/mL,> 64 µg/mL,> 64 µg/mL,> 64 µg/mL,> 8 µg/mL,> 64 µg/mL,> 8 µg/mL,> 8 µg/mL,> 64 µg/mL,> 64 µg/mL,> 64 µg/mL,> 64 µg/mL,abolished the activity in all tested strains
